Laboratory results taken from patent US20250345392A1, “ANNEXIN A1 LIQUID PHARMACEUTICAL COMPOSITION” (ResoTher Pharma A/S, priority 2022, published 2025).
Like-named read-outs stand apart in the source and are kept apart here. Ends that are not written are not given here.

Assay: Clinical test in humans, three 30-min i.v. infusions 8 hours apart, plasma PK
Assay type: in vivo
Conditions: human; for time of first measurable concentrations after the start of infusion: each infusion; for half-life / AUC(0-t) / AUC / Cmax / Tmax: in vivo, iv, three 30-min i.v. infusions 8 h apart; for half-life: after the last infusion; for AUC(0-t): read-out: AUC0-24
Method: A total of 8 subjects were included in each group. In each group, 6 subjects received the active treatment and 2 received the placebo. The active treatment was as follows in each group: • Group 9 received three 8 hours apart 30-min Peptide 1 intravenous (i.v.) infusions, wherein each i.v. infusion corresponded to a dose of 50 μg/kg. • Group 10 received three 8 hours apart 30-min Peptide 1 intravenous (i.v.) infusions, wherein each i.v. infusion corresponded to a dose of 100 μg/kg. • Group 11 received three 8 hours apart 30-min Peptide 1 intravenous (i.v.) infusions, wherein each i.v. infusion corresponded to a dose of 140 μg/kg. • Group 12 received three 8 hours apart 30-min Peptide 1 intravenous (i.v.) infusions, wherein each i.v. infusion corresponded to a dose of 200 μg/kg. • Group 13 received three 8 hours apart 30-min Peptide 1 intravenous (i.v.) infusions, wherein each i.v. infusion corresponded to a dose of 250 μg/kg.
The tested liquid pharmaceutical composition has a pH of 8.2-8.4, and comprises the following: • i) 5 mg/ml of Peptide 1, • ii) 4% (w/w) mannitol, • iii) 1% (w/w) sucrose, • iv) 0.01% (w/w) Polysorbate-80, • v) 10 mM glycyl-glycine, and • vi) sterile water for injection.
Venous whole blood samples were collected from all subjects.
Plasma samples were analyzed for Peptide 1 using validated Liquid chromatography—Tandem Mass spectrometry (LC-MS/MS) methods by Charles River Laboratories (CRL).
Derivation of PK parameters were carried out by PhinC Development using Phoenix WinNonlin® (Version Phoenix 8.1—Certara—Princeton—USA). A non-compartmental analysis (NCA) approach was chosen.
For the calculation of the PK parameters and characteristics the following rules were applied: • All the plasma concentrations validated by the bioanalytical laboratory and provided to the pharmacokinetics were used for the PK analysis. • The theoretical PK blood sampling time points were used. • At time points in the lag-time between time zero and the first concentration equal or above limit of quantification (LOQ), concentrations below the LOQ (BLQ) were set to zero (0). • Concentrations BLQ between 2 concentrations equal or above LOQ were considered as missing. • Trailing concentrations (at time point between time of last measurable concentrations and time of last blood sample) BLQ were not used in calculations. • For 3 infusions regimen, each infusion was considered separately and BLQ rules were applied for each infusion. […] If the pre-dose value was greater than 5% of Cmax, the subject was dropped from all statistical evaluations.
AUC0-tau was only calculated if there were at least 3 concentrations above LOQ. • AUC0-24: The area under the plasma concentration-time curve from time zero (pre-dose) to 24 h was calculated as the sum of the 3 AUC0-tau: AUC0-24=AUC0-tau1+AUC0-tau2+AUC0-tau3. • AUC0-t: The area under the concentration-time curve from time zero (pre-dose) to the time of last quantifiable concentration was calculated using a linear trapezoidal method after each administration (AUC0-t1, AUC0-t2 and AUC0-t3, where AUC0-t1 was AUC0-t corresponded to the AUC from pre-dose to the last measurable quantifiable concentration following the first infusion). AUC0-t was only calculated if there were at least 3 concentrations above LOQ. • ke: The terminal plasma elimination rate-constant was estimated from log-linear regression analysis of the terminal phase of the plasma concentration-time profile. The number of points included in the terminal phase was determined by visual inspection of the semi-log plots of the plasma concentration-time profiles. A minimum of 3 data points, including the last measured data point and excluding Cmax, had to be available for the regression. The correlation coefficient for the goodness of the fit of the regression line through the data points (r^2) had to be 0.8000 or higher, for the value to be considered reliable. […]

[1] = Group 12 (three infusions of 200 μg/kg)
[2] = Group 13 (three infusions of 250 μg/kg)
[3] = between 50 μg/kg t.i.d. and 250 μg/kg t.i.d. (dose increased by 5-fold)
[4] = between 100 μg/kg t.i.d. and 250 μg/kg t.i.d. (dose increased by 2.5-fold)
[5] = between 140 μg/kg t.i.d. and 250 μg/kg t.i.d. (dose increased by 1.8-fold)
[6] = between 200 μg/kg t.i.d. and 250 μg/kg t.i.d. (dose increased by 1.25-fold)
[7] = 100 ug/kg, 100 μg/kg each, mean
[8] = 140 ug/kg, 140 μg/kg each, mean
[9] = 200 ug/kg, 200 μg/kg each, mean
[10] = 250 ug/kg, 250 μg/kg each, mean

- time up to which concentrations were measurable in all subjects after each infusion [1]: at least 4 h
- time of first measurable concentrations after the start of infusion [1]: 0.16 h
- time up to which concentrations were measurable in all subjects after each infusion [2]: at least 4 h
- time of first measurable concentrations after the start of infusion [2]: 0.16 h
- increase of GM of AUC0-24 [3]: 4.8 fold
- increase of GM of Global Cmax [3]: 5.4 fold
- increase of GM of AUC0-24 [4]: 2.1 fold
- increase of GM of Global Cmax [4]: 2.2 fold
- increase of GM of AUC0-24 [5]: 1.4 fold
- increase of GM of Global Cmax [5]: 1.6 fold
- increase of GM of AUC0-24 [6]: 0.9 fold
- increase of GM of Global Cmax [6]: 1.0 fold
- GM accumulation ratios on Cmax and AUC0-tau (between the first and the last infusion, dose range 50-250 μg/kg, no accumulation observed): around 1
- half-life (50 ug/kg, 50 μg/kg each, GM): 1.37 h
- AUC(0-t) (50 ug/kg, 50 μg/kg each, GM): 1560 ng·h/mL
- AUC (50 ug/kg, 50 μg/kg each, GM, read-out: AUC0-t2): 416 ng·h/mL
- AUC (50 ug/kg, 50 μg/kg each, GM, read-out: AUC0-t3): 433 ng·h/mL
- AUC (50 ug/kg, 50 μg/kg each, GM, read-out: AUC0-tau2): 511 ng·h/mL
- AUC (50 ug/kg, 50 μg/kg each, GM, read-out: AUC0-tau3): 538 ng·h/mL
- Cmax (50 ug/kg, 50 μg/kg each, GM, read-out: Global Cmax): 420 ng/mL
- Tmax (50 ug/kg, 50 μg/kg each, GM, read-out: Global tmax): 4.12 h
- Tmax (50 ug/kg, 50 μg/kg each, GM, read-out: tmax3): 16.5 h
- half-life (50 ug/kg, 50 μg/kg each, mean): 1.38 h
- AUC(0-t) (50 ug/kg, 50 μg/kg each, mean): 1570 ng·h/mL
- AUC (50 ug/kg, 50 μg/kg each, mean, read-out: AUC0-t1): 422 ng·h/mL
- AUC (50 ug/kg, 50 μg/kg each, mean, read-out: AUC0-t2): 420 ng·h/mL
- AUC (50 ug/kg, 50 μg/kg each, mean, read-out: AUC0-t3): 437 ng·h/mL
- AUC (50 ug/kg, 50 μg/kg each, mean, read-out: AUC0-tau1): 513 ng·h/mL
- Cmax (50 ug/kg, 50 μg/kg each, mean, read-out: Cmax3): 398 ng/mL
- Cmax (50 ug/kg, 50 μg/kg each, mean, read-out: Global Cmax): 422 ng/mL
- Tmax (50 ug/kg, 50 μg/kg each, median, read-out: Global tmax): 8.5 h
- half-life (100 ug/kg, 100 μg/kg each, GM): 2.04 h
- AUC (100 ug/kg, 100 μg/kg each, GM, read-out: AUC0-tau1): 1100 ng·h/mL
- AUC (100 ug/kg, 100 μg/kg each, GM, read-out: AUC0-tau2): 1240 ng·h/mL
- AUC (100 ug/kg, 100 μg/kg each, GM, read-out: AUC0-tau3): 1260 ng·h/mL
- Cmax (100 ug/kg, 100 μg/kg each, GM, read-out: Global Cmax): 1020 ng/mL
- Tmax (100 ug/kg, 100 μg/kg each, GM, read-out: Global tmax): 11.8 h
- half-life [7]: 2.18 h
- AUC(0-t) [7]: 3620 ng·h/mL
- AUC (100 ug/kg, 100 μg/kg each, mean, read-out: AUC0-t2): 1130 ng·h/mL
- AUC (100 ug/kg, 100 μg/kg each, mean, read-out: AUC0-t3): 1090 ng·h/mL
- Tmax (100 ug/kg, 100 μg/kg each, median, read-out: Global tmax): 12.5 h
- Tmax (100 ug/kg, 100 μg/kg each, median, read-out: tmax3): 16.5 h
- AUC (140 ug/kg, 140 μg/kg each, GM, read-out: AUC0-t1): 1660 ng·h/mL
- AUC (140 ug/kg, 140 μg/kg each, GM, read-out: AUC0-t2): 1760 ng·h/mL
- AUC (140 ug/kg, 140 μg/kg each, GM, read-out: AUC0-tau1): 1740 ng·h/mL
- AUC (140 ug/kg, 140 μg/kg each, GM, read-out: AUC0-tau2): 1850 ng·h/mL
- AUC (140 ug/kg, 140 μg/kg each, GM, read-out: AUC0-tau3): 1690 ng·h/mL
- Cmax (140 ug/kg, 140 μg/kg each, GM, read-out: Global Cmax): 1400 ng/mL
- Tmax (140 ug/kg, 140 μg/kg each, GM, read-out: Global tmax): 3.29 h
- half-life [8]: 1.94 h
- AUC(0-t) [8]: 5410 ng·h/mL
- AUC (140 ug/kg, 140 μg/kg each, mean, read-out: AUC0-t1): 1690 ng·h/mL
- AUC (140 ug/kg, 140 μg/kg each, mean, read-out: AUC0-t2): 1870 ng·h/mL
- AUC (140 ug/kg, 140 μg/kg each, mean, read-out: AUC0-t3): 1600 ng·h/mL
- AUC (140 ug/kg, 140 μg/kg each, mean, read-out: AUC0-tau1): 1760 ng·h/mL
- AUC (140 ug/kg, 140 μg/kg each, mean, read-out: AUC0-tau2): 1940 ng·h/mL
- Cmax (140 ug/kg, 140 μg/kg each, mean, read-out: Global Cmax): 1430 ng/mL
- Tmax (140 ug/kg, 140 μg/kg each, median, read-out: Global tmax): 8.41 h
- Tmax (140 ug/kg, 140 μg/kg each, median, read-out: tmax3): 16.5 h
- half-life (200 ug/kg, 200 μg/kg each, GM): 1.93 h
- AUC(0-t) (200 ug/kg, 200 μg/kg each, GM): 8020 ng·h/mL
- AUC (200 ug/kg, 200 μg/kg each, GM, read-out: AUC0-t2): 2560 ng·h/mL
- AUC (200 ug/kg, 200 μg/kg each, GM, read-out: AUC0-t3): 2690 ng·h/mL
- AUC (200 ug/kg, 200 μg/kg each, GM, read-out: AUC0-tau1): 2590 ng·h/mL
- AUC (200 ug/kg, 200 μg/kg each, GM, read-out: AUC0-tau2): 2650 ng·h/mL
- Cmax (200 ug/kg, 200 μg/kg each, GM, read-out: Global Cmax): 2350 ng/mL
- Tmax (200 ug/kg, 200 μg/kg each, GM, read-out: Global tmax): 2.57 h
- half-life [9]: 1.94 h
- AUC(0-t) [9]: 8120 ng·h/mL
- AUC (200 ug/kg, 200 μg/kg each, mean, read-out: AUC0-t1): 2520 ng·h/mL
- AUC (200 ug/kg, 200 μg/kg each, mean, read-out: AUC0-t2): 2610 ng·h/mL
- AUC (200 ug/kg, 200 μg/kg each, mean, read-out: AUC0-t3): 2720 ng·h/mL
- AUC (200 ug/kg, 200 μg/kg each, mean, read-out: AUC0-tau1): 2620 ng·h/mL
- AUC (200 ug/kg, 200 μg/kg each, mean, read-out: AUC0-tau2): 2690 ng·h/mL
- AUC (200 ug/kg, 200 μg/kg each, mean, read-out: AUC0-tau3): 2810 ng·h/mL
- Tmax (200 ug/kg, 200 μg/kg each, median, read-out: Global tmax): 4.5 h
- Tmax (200 ug/kg, 200 μg/kg each, median, read-out: tmax3): 16.5 h
- AUC(0-t) (250 ug/kg, 250 μg/kg each, GM): 7490 ng·h/mL
- AUC (250 ug/kg, 250 μg/kg each, GM, read-out: AUC0-t3): 2410 ng·h/mL
- AUC (250 ug/kg, 250 μg/kg each, GM, read-out: AUC0-tau1): 2590 ng·h/mL
- AUC (250 ug/kg, 250 μg/kg each, GM, read-out: AUC0-tau2): 2390 ng·h/mL
- Cmax (250 ug/kg, 250 μg/kg each, GM, read-out: Global Cmax): 2260 ng/mL
- Tmax (250 ug/kg, 250 μg/kg each, GM, read-out: Global tmax): 3.69 h
- Tmax (250 ug/kg, 250 μg/kg each, GM, read-out: tmax1): 0.46 h
- half-life [10]: 1.88 h
- AUC(0-t) [10]: 7550 ng·h/mL
- AUC (250 ug/kg, 250 μg/kg each, mean, read-out: AUC0-t1): 2540 ng·h/mL
- AUC (250 ug/kg, 250 μg/kg each, mean, read-out: AUC0-t2): 2350 ng·h/mL
Substance: AMVSEFLKQAWFIENEEQEYVQTLKSSKGGPGSAVSPYPTFNPSSDV-NH2 [Peptide 1]
